Data reported in patent US6653478B2, “Substituted benzimidazol-2-ones as vasopressin receptor antagonists and neuropeptide Y modulators” (Ortho-McNeil Pharmaceutical, Inc., priority 2000, dated 2003).

What was measured:
[1] = molecular target: T1, NPY2 receptors (Homo sapiens, UniProt P49146); test: Neuropeptide Y receptor binding assay (125I-PYY, KAN-TS cell membranes); conditions: 10 μM compound; for inhibition at 10 µM: read-out: NPY-2@10, % Inh
T1 construct: Cell Membranes from KAN-TS cells having NPY2 receptors; endogenous in cells; host or cells: KAN-TS cells (membranes)
T1 sequence (P49146 1-381): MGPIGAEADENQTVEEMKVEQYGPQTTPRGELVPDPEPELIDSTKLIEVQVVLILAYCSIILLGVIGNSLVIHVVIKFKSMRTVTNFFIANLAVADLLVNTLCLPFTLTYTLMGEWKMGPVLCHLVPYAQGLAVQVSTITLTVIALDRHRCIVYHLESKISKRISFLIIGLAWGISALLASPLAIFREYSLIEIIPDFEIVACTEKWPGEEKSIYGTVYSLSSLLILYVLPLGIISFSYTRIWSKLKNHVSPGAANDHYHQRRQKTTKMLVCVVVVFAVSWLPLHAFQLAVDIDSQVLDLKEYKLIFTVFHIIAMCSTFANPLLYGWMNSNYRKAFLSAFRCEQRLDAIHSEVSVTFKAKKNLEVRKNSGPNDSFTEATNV
Description: Neuropeptide Y Receptor Binding Assay
Load 96-well RIA racks with RIA vials (Sarstedt, cat. #73.1055)
Prepare membranes—use 2×15 cm confluent plates/96-well assay plate
Add 14 mls Homogenization buffer/cell pellet
Homogenize at high speed for 15 seconds
Transfer to 15 ml conical tube and spin 5′ at 4° C. at setting 3 in RT6000 centrifuge
Transfer supernatant to 30 ml Corex tube
Balance and spin 25′ at 15,000 rpm at 4° C.
Resuspend pellet in 10 mls Binding buffer
Homogenize at high speed for 15 sec.
Bring volume up to 50 mls in Binding buffer (25 mls/2×96-well plates)
Keep on ice until use or freeze in aliquots (2 plates/tube) in −70° C.
Prepare ^125I-PYY (for 2×96-well compound plates)
Dilute 50 uCi ^125I-PYY in 1 ml H2O
Add 0.4 ml 10% BSA to 20 ml Binding buffer
Add 150 μl ^125I-PYY, mix well
NSB (1 μM PYY final conc.): 40 μl PYY (100 μM stock)+60 μl 30% DMSO in HEPES=40 μM PYY—add 5 μl/well
Total Binding: Add 5 μl/well of Compound Diluent
Add 5 μl compound (final conc. @10 μM)
Incubate at R.T. for 1 hr.
Spin plates for 10′ at setting 9 in RT6000 centrifuge
Aspirate supernatant from tubes, add 300 μl PBS and aspirate again.
After plates are washed and aspirated, put individual tubes in 12×75 mm polypropylene carrier tubes. Count on gamma counter.

[2] = molecular target: human V1a receptor (Homo sapiens, UniProt P37288); test: V1a binding assay (3H-AVP displacement, HEK-293 membranes); set-up: expressed in transfected cells; host or cells: HEK-293 (membranes); conditions: for inhibition at 1 µM: read-out: V1a@1.0, % Inh
Description: (§1) V1a, V1b or V2 Binding Assay
(§2) Receptor binding studies were performed using recombinant human V1a, V1b or V2 receptors. Cellular membranes were harvested from HEK-293 cells transfected to express either the V1a, V1b or V2 receptors. Compounds were evaluated for their ability to displace ^3H-arginine vasopressin (^3H-AVP; specific activity 40-87 Ci/mmol; NEN Life Sciences, Boston, Mass.). Compounds were solubilized in dimethylsulfoxide (DMSO) and diluted to working concentration of 10% DMSO with assay buffer (50 mM Tris, 5 mM MgCl2, 0.1% BSA, pH 7.5). Assay buffer was supplemented with several protease inhibitors (1 mM Pefabloc, 5 μg/ml aprotinin/leupeptin/pepstatin A, 50 μg/ml bacitracin; Sigma Chemical, St. Louis, Mo.). Non-specific binding was determined using 1.25 μM arginine vasopressin (AVP; Peninsula Labs, Belmont, Calif.). Assay reagents and test compounds were added to 96-well round bottom polypropylene plates (145 μl buffer, 5 μl compound in 10% DMSO, 25 μl buffer containing 10,000 cpm tracer, 25 μl cell membrane). After incubation for 1 hour at room temperature, the well contents were aspirated across a Unifilter GF/C plate (Packard Instrument, Downers Grove, Ill.) which had been presoaked in 0.3% polyethyleneimine to prevent peptide sticking. The wells were washed repeatedly with cold saline containing 0.05% Tween 20. The plate was then dried and 25 μl Microscint-20 cocktail (Packard Instruments) added to each well. The plates were sealed and counted on a TopCount scintillation counter (Packard Instruments) using quench correction.

[3] = molecular target: human V2 receptor (Homo sapiens, UniProt P30518); test: V2 binding assay (3H-AVP displacement, HEK-293 membranes); set-up: expressed in transfected cells; host or cells: HEK-293 (membranes); conditions: 1.0 μM compound; for inhibition at 1 µM: read-out: V2@1.0, % Inh
Description: as §1, §2

[4] = molecular target: T2, human V1b receptor (Homo sapiens, UniProt P47901); test: V1b binding assay (3H-AVP displacement, HEK-293 membranes); set-up: expressed in transfected cells; host or cells: HEK-293 (membranes); conditions: 10 μM compound; for inhibition at 10 µM: read-out: V1b % Inh @10
T2 sequence (P47901 1-424): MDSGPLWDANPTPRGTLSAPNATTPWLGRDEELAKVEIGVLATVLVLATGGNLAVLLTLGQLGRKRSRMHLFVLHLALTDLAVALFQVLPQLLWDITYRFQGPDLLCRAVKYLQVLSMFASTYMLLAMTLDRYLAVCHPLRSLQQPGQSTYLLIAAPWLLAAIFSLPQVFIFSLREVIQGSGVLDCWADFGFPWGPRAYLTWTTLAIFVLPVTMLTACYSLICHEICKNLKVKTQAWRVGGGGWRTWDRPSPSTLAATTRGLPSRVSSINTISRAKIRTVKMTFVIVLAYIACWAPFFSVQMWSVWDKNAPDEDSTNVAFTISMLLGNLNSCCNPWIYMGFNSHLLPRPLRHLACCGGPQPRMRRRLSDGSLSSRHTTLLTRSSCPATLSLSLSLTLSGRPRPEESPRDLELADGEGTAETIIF
Description: as §1, §2

Chain of human V1a receptor (P37288 whole entry): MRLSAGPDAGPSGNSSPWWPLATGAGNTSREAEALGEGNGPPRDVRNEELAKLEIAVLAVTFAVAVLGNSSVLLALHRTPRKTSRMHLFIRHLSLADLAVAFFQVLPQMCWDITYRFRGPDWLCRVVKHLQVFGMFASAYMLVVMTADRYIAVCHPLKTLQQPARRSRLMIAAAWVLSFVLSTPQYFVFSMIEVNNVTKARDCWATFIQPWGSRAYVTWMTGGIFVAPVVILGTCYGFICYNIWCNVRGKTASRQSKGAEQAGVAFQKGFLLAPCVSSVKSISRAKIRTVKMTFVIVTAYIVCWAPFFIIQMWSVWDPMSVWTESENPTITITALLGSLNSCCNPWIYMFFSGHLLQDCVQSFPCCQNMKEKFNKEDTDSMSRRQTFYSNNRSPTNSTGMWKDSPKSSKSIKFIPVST
Chain of human V2 receptor (P30518 whole entry): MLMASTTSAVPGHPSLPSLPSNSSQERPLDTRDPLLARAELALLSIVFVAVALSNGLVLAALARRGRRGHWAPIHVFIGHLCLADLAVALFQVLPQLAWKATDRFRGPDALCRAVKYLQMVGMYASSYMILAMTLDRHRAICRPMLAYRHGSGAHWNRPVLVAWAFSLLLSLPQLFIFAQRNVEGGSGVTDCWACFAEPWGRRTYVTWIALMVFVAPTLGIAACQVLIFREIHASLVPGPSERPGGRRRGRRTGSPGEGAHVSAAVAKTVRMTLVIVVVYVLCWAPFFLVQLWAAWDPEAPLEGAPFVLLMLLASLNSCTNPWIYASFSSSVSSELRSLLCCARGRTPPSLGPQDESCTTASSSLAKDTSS

| SMILES | inhibition at 10 µM [1] | IC50 [2] | inhibition at 1 µM [3] | inhibition at 10 µM [4] | NPY-2@10, % Inh [1] | V1a@1.0, % Inh ([2]; 1.0 μM compound) | V2@1.0, % Inh [3] | V1b % Inh @10 [4] | inhibition at 1 µM ([2]; 1.0 μM compound) | inhibition at 10 µM ([2]; 10 μM compound, read-out: V1a % Inh @10) |
| --- | --- | --- | --- | --- | --- | --- | --- | --- | --- | --- |
| CC(NC(=O)N1CCC(n2c(=O)[nH]c3ccccc32)CC1)c1cccc2ccccc12 (stereo in doubt) [Compound 7] | 13% | 9200 nM | 31% | 11% |  |  |  |  |  |  |
| O=c1[nH]c2ccccc2n1C1CCN(C(=S)NC(c2ccccc2)c2ccccc2)CC1 [Compound 1, 1-[(N1-Piperidinocarbothioyldiphenylmethylamino)-4-yl]-1,3-dihydro-benzimidazol-2-one] | 52% | 590 nM | 38% | 0% |  |  |  |  |  |  |
| COc1ccccc1NC(=S)N1CCC(n2c(=O)[nH]c3ccccc32)CC1 [Compound 4, 1-[N1-Piperidinocarbothioyl-(2-methoxyphenyl)amino-4-yl]-1,3-dihydro-benzimidazol-2-one] |  |  |  |  | 6% | 0% | 0% | 0%@10 |  |  |
| COc1cc(NC(=S)N2CCC(n3c(=O)[nH]c4ccccc43)CC2)cc(OC)c1OC [Compound 6] | 16% |  | 9% | 0% |  |  |  |  | 20% |  |
| O=C(NC(=S)N1CCC(n2c(=O)[nH]c3ccccc32)CC1)c1ccccc1 [Compound 8] | 5% |  | 10% | 13% |  |  |  |  | 55% |  |
| Cn1c(=O)n(C2CCN(C(=S)NC(c3ccccc3)c3ccccc3)CC2)c2ccccc21 [Compound 10, 3-Methyl-1-[(N1-Piperidinocarbothioyldiphenylmethylamino)-4-yl]-1,3-dihydro-benzimidazol-2-one] | 34% | 380 nM | 51% |  |  |  |  |  |  |  |
| O=c1[nH]c2ccccc2n1C1CCN(C(=S)NCc2ccccc2)CC1 [Compound 11] | 26% | 3100 nM | 3% | 0% |  |  |  |  |  |  |
| COc1ccccc1CNC(=S)N1CCC(n2c(=O)[nH]c3ccccc32)CC1 [Compound 14] | 18% |  | 1% | 0% |  |  |  |  | 0% |  |
| O=c1[nH]c2ccccc2n1C1CCN(C(=S)NCc2cccc3ccccc23)CC1 [Compound 15] | 14% |  | 10% | 7% |  |  |  |  | 17% |  |
| O=c1[nH]c2ccccc2n1C1CCN(C(=S)NCc2ccc3c(c2)OCO3)CC1 [Compound 16] | 15% |  | 0% | 15% |  |  |  |  | 40% |  |
| O=c1[nH]c2ccccc2n1C1CCN(C(=S)NCc2ccc(Cl)cc2Cl)CC1 [Compound 17] | 15% |  | 14% | 7% |  |  |  |  | 12% |  |
| COc1cccc(CNC(=S)N2CCC(n3c(=O)[nH]c4ccccc43)CC2)c1OC [Compound 18] | 10% |  | 9% | 3% |  |  |  |  | 22% |  |
| O=c1n(CCN2CCOCC2)c2ccccc2n1C1CCN(C(=S)NC(c2ccccc2)c2ccccc2)CC1 [Compound 19, 1-[(N1-Piperidinocarbothioyldiphenylmethylamino)-4-yl]-3-(2-N-morpholinoethyl)-1,3-dihydro-benzimidazol-2-one] | 69% | 270 nM | 42% |  |  |  |  |  |  |  |
| COc1cc(CNC(=S)N2CCC(n3c(=O)[nH]c4ccccc43)CC2)cc(OC)c1OC [Compound 20] | 12% |  | 0% | 0% |  |  |  |  |  | 25% |
| CCc1ccc(CCNC(=S)N2CCC(n3c(=O)[nH]c4ccccc43)CC2)cc1 [Compound 21] | 13% |  | 19% |  |  |  |  |  | 31% |  |
| O=c1[nH]c2ccccc2n1C1CCN(C(=S)NCCc2ccccc2)CC1 [Compound 22] | 11% |  | 4% | 0% |  |  |  |  | 45% |  |
| O=c1[nH]c2ccccc2n1C1CCN(C(=S)NCCc2cccc(Cl)c2)CC1 [Compound 23] | 15% |  | 12% | 0% |  |  |  |  | 56% |  |
| CN(C)c1ccc(CNC(=S)N2CCC(n3c(=O)[nH]c4ccccc43)CC2)cc1 [Compound 24] | 12% |  | 9% | 0% |  |  |  |  | 19% |  |
| O=c1[nH]c2ccccc2n1C1CCN(C(=S)NC(c2ccccc2)(c2ccccc2)c2ccccc2)CC1 [Compound 25, 1-[(N1-Piperidinocarbothioyltriphenylmethylamino)-4-yl]-1,3-dihydro-benzimidazol-2-one] | 13% |  | 0% | 0% |  |  |  |  | 0% |  |
| O=c1[nH]c2ccccc2n1C1CCN(C(=S)NCCN2CCOCC2)CC1 [Compound 26] | 10% |  | 20% | 0% |  |  |  |  | 33% |  |
| CC(NC(=S)N1CCC(n2c(=O)[nH]c3ccccc32)CC1)c1ccc(F)cc1 (stereo not shown) [Compound 27] | 15% |  | 20% | 0% |  |  |  |  | 33% |  |
| O=c1[nH]c2ccccc2n1C1CCN(C(=S)NCc2ccc(Cl)cc2)CC1 [Compound 28] | 24% |  | 0% | 3% |  |  |  |  | 22% |  |
| O=C(O)C(Cc1ccccc1)NC(=S)N1CCC(n2c(=O)[nH]c3ccccc32)CC1 (stereo not shown) [Compound 41] | 11% |  | 0% |  |  |  |  |  | 8% |  |
| CN1CCN(C(=O)C(Cc2ccccc2)NC(=S)N2CCC(n3c(=O)[nH]c4ccccc43)CC2)CC1 (stereo not shown) [Compound 45] | 15% |  | 9% |  |  |  |  |  | 54% |  |
| COC(=O)C(Cc1ccccc1)NC(=S)N1CCC(n2c(=O)n(CCCNC(=O)OCc3ccccc3)c3ccccc32)CC1 (stereo not shown) [Compound 52] | 11% | 580 nM |  | 13% |  |  |  |  |  |  |
